# “Also recorded” adds a separate entry of the source.
# Tests used:
# SK2 = conditions: Figure 1, cited from earlier work; for IC50: known compounds
# SK1 = conditions: known compounds, Figure 1; cited from earlier work
# SK1 enzyme = molecular target: T1, SK1 enzyme (Homo sapiens, UniProt Q9NYA1); experiment: SK activity assay (Adapta screening system); assay type: biochemical; conditions: 20 μM, Figure 5
# T1 construct: purchased Thermo Fisher Scientific
# Protocol: The effect of compounds in sphingosine kinase activity was examined using the […] screening system (Thermo Fisher Scientific System, Waltham, MA, USA). The kinase inhibition ability of compounds 1-11 along with RB005 was measured with final concentration of 20 μM. […] The data were presented as percentage inhibition of SK enzyme by individual compounds.
# HCT116 cells = experiment: MTT cell viability assay; assay type: cell-based, human; conditions: for cytotoxic effect (cell viability): HCT116, 20 and 40 µM, 24 h, Figure 2B
# Protocol: (§1) The HT29 and HCT116 cells (human colon cancer), AGS (human gastric cancer), and MIA PaCa-2 cells (human pancreatic cancer) were purchased from Korean Cell Line Bank (Seoul, Korea). Cancer cells were maintained in RPMI (HT29 and AGS) and DMEM (HCT116 and MIA PaCa-2) culture media supplemented with 10% fetal bovine serum (FBS) and 100 U/mL penicillin and streptomycin at 37 °C in a 95% humidified incubator containing 5% CO2. The cytotoxic effect of the compounds was assessed using the MTT cell viability assay. Briefly, 3 × 10^3 cells/well were grown in 96-well plates for 24 h. After treatment with desired concentration of respective compounds for 24 h or 48 h, the EZ-CYTOTOX (10 µM) reagent was added in each well and incubated for 90 min. The absorbance was measured at 450 nm wavelength using Skanlt software 5.0 (Thermo Scientific, Waltham, MA, USA) installed on a Multiskan GO (Thermo Scientific, Waltham, MA, USA) spectrophotometer. Each experiment was independently repeated three times (n = 12).
# HT29 cells [1] = experiment: MTT cell viability assay; assay type: cell-based, human; conditions: HT29, 20 and 40 µM, 24 h, Figure 2A
# Protocol: as §1
# PP2A in HCT116 cells = molecular target: T2, PP2A in HCT116 cells (Homo sapiens, UniProt P67775); experiment: PP2A activity assay (immunoprecipitation kit); assay type: cell-based; conditions: for PP2A activity (activation): HCT116, 20 µM, 24 h
# T2 construct: endogenous in cells; host or cells: HCT116
# T2 sequence (P67775 whole entry): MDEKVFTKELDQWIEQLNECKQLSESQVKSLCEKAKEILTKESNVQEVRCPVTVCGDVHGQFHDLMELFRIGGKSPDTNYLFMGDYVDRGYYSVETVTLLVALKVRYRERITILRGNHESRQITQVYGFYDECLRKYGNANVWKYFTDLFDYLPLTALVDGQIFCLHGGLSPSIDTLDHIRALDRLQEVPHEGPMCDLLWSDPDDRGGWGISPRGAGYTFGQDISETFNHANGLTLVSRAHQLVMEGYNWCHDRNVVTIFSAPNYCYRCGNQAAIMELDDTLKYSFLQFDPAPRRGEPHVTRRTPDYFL
# Protocol: The activity of PP2A was measured by using the PP2A kit according to the manufacturer’s instruction. The cell lysate was incubated with anti PP2A, C subunit antibody, and protein A agarose slurry for 2 h at 4 °C. The phosphopeptide solution (60 µL) was mixed and incubated at 30 °C for 10 min in a shaker. After a brief centrifuge, a 25 µL sample was liquated in ½ volume microplate and 100 µL malachite green phosphate detection working solution was added. After color development, absorbance was taken at 650 nm in a Multiskan GO microplate reader. A phosphate standard curve was constructed using phosphate standard, and results were calculated using this standard curve. This experiment was repeated three times (n = 6).
# [2] = system: AKT and ERK phosphorylation in HCT116 cells; experiment: Western blotting of pAKT and pERK; assay type: cell-based, human; conditions: HCT116, 20 µM
# Protocol: The cell lysate was prepared after successive treatment using mammalian protein extraction buffer (Organic buffer + 10 mM NaCl + detergent pH 7.5) mixed with 1% protease/phosphatase inhibitor cocktail; protein was quantified with BCA assay, boiled at 95 °C for 10 min by adding sample loading buffer, separated using SDS-PAGE, and transferred into methanol-activated PVDF membrane. Primary antibodies were probed overnight in PVDF membrane at 4 °C and […] with subsequent HRP anti-mouse and anti-rabbit secondary antibodies at room temperature. Then, membranes were washed with TBST buffer, and images were detected by Amersham Imager 680 (GE Healthcare; Leiden, WZ, The Netherlands) using ECL solution. Band intensities were analyzed and quantified using Image J software (version 1.53i).
# HT29 cells [3] = experiment: Annexin V-FITC/PI staining, flow cytometry; assay type: cell-based, human; conditions: HT29, 10 and/or 20 µM, 24 h
# Protocol: After treating HT29 and HCT116 cells with compounds 10, 11, 13 and FTY720 according to the manufacturer’s instruction, the annexin V and PI staining technique was employed to determine apoptosis in the cells. Briefly, cells (2.5 × 10^5 cells/well) were seeded in 12-well plates and treated with 10 and/or 20 µM of compounds for 24 h. Cells were collected using trypsin-EDTA and stained with annexin V-FITC dye for 15 min at room temperature, followed by PI staining for 20 min and analyzed by flow cytometer (MACSQuant Analyzer 10; Miltenyi Biotec, Bergisch Gladbach, Germany). The data was analyzed using MACSQuantify^TM version 2.8 software (Miltenyi Biotec, Bergisch Gladbach, Germany) and presented as early apoptosis, late apoptosis, or combined apoptosis percentage. Each experiment was repeated three times independently (n = 6).
# CYP2C9 = CYP2C9 (Homo sapiens, UniProt P11712); experiment: Inhibition of CYP enzymes activity, human liver microsomes; conditions: human liver microsomes 0.25 mg/mL, 10 μM, diclofenac substrate
# CYP2C9, sequence (P11712 whole entry): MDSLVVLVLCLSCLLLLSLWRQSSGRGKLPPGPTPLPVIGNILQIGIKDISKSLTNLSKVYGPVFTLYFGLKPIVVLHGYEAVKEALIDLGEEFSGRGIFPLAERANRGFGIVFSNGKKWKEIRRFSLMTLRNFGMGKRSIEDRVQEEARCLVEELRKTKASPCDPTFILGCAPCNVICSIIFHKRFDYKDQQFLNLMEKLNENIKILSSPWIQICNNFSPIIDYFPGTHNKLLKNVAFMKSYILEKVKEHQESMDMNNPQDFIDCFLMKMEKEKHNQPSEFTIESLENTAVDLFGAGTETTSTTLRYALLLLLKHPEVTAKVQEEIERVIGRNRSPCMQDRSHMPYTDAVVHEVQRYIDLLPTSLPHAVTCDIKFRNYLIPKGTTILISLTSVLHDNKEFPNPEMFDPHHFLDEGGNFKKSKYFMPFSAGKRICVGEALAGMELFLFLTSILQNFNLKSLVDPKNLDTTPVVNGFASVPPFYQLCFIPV
# CYP1A2 = molecular target: T3, CYP1A2 (Homo sapiens, UniProt P05177); experiment: as above; conditions: human liver microsomes 0.25 mg/mL, 10 μM, phenacetin substrate
# T3 sequence (P05177 1-516): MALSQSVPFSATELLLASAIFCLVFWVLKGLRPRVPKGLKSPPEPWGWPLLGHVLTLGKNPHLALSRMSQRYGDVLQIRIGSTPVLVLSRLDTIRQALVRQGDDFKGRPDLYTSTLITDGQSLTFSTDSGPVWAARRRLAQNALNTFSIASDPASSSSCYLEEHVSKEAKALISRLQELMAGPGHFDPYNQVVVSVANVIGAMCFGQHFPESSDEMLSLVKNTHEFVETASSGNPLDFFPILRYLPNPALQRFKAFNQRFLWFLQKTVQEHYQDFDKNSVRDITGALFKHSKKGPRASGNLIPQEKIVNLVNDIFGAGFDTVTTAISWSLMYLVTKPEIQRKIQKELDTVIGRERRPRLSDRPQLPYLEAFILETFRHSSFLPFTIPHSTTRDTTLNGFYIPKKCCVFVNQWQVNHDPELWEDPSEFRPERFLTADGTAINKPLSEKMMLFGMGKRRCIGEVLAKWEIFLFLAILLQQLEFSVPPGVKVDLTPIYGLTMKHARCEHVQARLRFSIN
# CYP2C19 = CYP2C19 (Homo sapiens, UniProt P33261); experiment: as above; conditions: human liver microsomes 0.25 mg/mL, 10 μM, S-mephenytoin substrate
# CYP2C19, sequence (P33261 whole entry): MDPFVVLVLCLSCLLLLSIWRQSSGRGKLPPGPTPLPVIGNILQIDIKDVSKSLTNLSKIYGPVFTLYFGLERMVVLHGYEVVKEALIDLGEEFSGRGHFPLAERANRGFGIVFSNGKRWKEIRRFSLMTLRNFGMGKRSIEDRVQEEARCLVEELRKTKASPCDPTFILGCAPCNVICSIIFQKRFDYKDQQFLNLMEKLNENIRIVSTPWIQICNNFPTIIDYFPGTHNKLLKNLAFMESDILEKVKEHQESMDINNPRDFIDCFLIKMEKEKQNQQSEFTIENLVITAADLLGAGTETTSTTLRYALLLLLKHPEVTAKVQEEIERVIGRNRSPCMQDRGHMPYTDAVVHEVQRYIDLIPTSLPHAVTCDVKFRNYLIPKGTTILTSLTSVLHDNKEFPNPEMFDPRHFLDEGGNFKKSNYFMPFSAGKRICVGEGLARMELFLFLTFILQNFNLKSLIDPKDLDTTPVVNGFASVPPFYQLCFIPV
# [4] = In vitro metabolic stability in liver microsomes; assay type: in vitro ADME, mouse
# [5] = In vitro metabolic stability in liver microsomes
# CYP2D6 = CYP2D6 (Homo sapiens, UniProt P10635); experiment: Inhibition of CYP enzymes activity, human liver microsomes; conditions: human liver microsomes 0.25 mg/mL, 10 μM, dextromethorphan substrate
# CYP2D6, sequence (P10635 whole entry): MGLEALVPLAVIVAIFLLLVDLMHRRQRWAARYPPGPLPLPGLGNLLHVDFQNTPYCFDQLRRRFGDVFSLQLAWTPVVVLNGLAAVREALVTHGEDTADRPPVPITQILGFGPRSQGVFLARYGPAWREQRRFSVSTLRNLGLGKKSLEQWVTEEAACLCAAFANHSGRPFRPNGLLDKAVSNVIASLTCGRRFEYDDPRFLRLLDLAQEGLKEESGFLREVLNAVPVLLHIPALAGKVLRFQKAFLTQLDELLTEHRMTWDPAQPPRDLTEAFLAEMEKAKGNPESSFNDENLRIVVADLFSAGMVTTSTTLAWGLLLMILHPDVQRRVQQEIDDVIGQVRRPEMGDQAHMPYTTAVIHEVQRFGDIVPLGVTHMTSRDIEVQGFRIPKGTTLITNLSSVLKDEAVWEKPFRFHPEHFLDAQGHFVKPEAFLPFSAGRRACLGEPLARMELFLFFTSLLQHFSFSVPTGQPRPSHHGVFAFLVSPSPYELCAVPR
# [6] = In vitro metabolic stability in liver microsomes; assay type: in vitro ADME, rat
# [7] = % remaining after 30 min, NADPH
# T1 sequence (Q9NYA1 whole entry): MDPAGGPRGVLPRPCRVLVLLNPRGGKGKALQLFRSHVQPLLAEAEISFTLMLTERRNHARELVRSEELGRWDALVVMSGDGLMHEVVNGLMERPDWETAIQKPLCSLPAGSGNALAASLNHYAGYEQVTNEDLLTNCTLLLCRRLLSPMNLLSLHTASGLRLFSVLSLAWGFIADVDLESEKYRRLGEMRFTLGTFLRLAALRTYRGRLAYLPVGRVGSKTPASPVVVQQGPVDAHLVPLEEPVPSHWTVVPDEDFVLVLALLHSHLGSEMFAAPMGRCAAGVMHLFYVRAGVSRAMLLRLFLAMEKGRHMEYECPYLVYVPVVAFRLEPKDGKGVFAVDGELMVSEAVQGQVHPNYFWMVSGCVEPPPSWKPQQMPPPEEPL
compound,measurement,setting,value
O=C(NCc1ccncc1)C12CC3CC(C1)CC(c1ccc(Cl)cc1)(C3)C2 [ABC294640],IC50,SK2,~60 µM
same,IC50,SK1,> 100 µM
"CCCCCCCOc1ccc(CCN2CCC[C@@H]2CO)cc1 [Compound 1, (R)-(1-(4-(Heptyloxy)phenethyl)pyrrolidin-2-yl)methanol]",SK1 inhibitory effect,SK1 enzyme,highest SK1 inhibitory effect
same,cytotoxic effect (cell viability),HCT116 cells,significant cytotoxic effects in both 20 and 40 µM concentrations
same,cytotoxic effect (cell viability),HT29 cells [1],more cytotoxic than RB005 and 5-FU
"CCCCCCCOc1ccc(CCN2CCCCC2)cc1 [Compound 2, 1-(4-(Heptyloxy)phenethyl)piperidine]",cytotoxic effect (cell viability),HCT116 cells,significant cytotoxic effects in both 20 and 40 µM concentrations
same,cytotoxic effect (cell viability),HT29 cells [1],more cytotoxic than RB005 and 5-FU
"CCCCCCCOc1ccc(CCN2CCC[C@H]2CO)cc1 [Compound 5, (S)-(1-(4-(Heptyloxy)phenethyl)pyrrolidin-2-yl)methanol]",cytotoxic effect (cell viability),HCT116 cells,"only 40 µM concentration of compounds 3, 5 and 9 shows significant cytotoxic effect"
"CCCCCCCOc1ccc(CCN2CCC(CO)CC2)cc1 [Compound 6, (1-(4-(Heptyloxy)phenethyl)piperidin-4-yl)methanol]",cytotoxic effect (cell viability),HCT116 cells,significant cytotoxic effects in both 20 and 40 µM concentrations
same,cytotoxic effect (cell viability),HT29 cells [1],more cytotoxic than RB005 and 5-FU
"CCCCCCCOc1ccc(CCN2CCC(C)CC2)cc1 [Compound 7, 1-(4-(Heptyloxy)phenethyl)-4-methylpiperidine]",cytotoxic effect (cell viability),HCT116 cells,significant cytotoxic effects in both 20 and 40 µM concentrations
"CCCCCCCOc1ccc(CCN2CCCC(CO)C2)cc1 (stereo not shown) [Compound 8, (1-(4-(Heptyloxy)phenethyl)piperidin-3-yl)methanol]",cytotoxic effect (cell viability),HCT116 cells,significant cytotoxic effects in both 20 and 40 µM concentrations
same,cytotoxic effect (cell viability),HT29 cells [1],more cytotoxic than RB005 and 5-FU
"CCCCCCCOc1ccc(CCN2CCNCC2)cc1 [Compound 9, 1-(4-(Heptyloxy)phenethyl)piperazine]",cytotoxic effect (cell viability),HCT116 cells,"only 40 µM concentration of compounds 3, 5 and 9 shows significant cytotoxic effect"
same,cytotoxic effect (cell viability),HT29 cells [1],more cytotoxic than RB005 and 5-FU
"O=S(=O)(Oc1ccc(CCN2CCC[C@@H]2CO)cc1)c1ccccc1 [Compound 11, (R)-4-(2-(2-(Hydroxymethyl)pyrrolidin-1-yl)ethyl)phenyl benzenesulfonate]",SK1 inhibitory effect,SK1 enzyme,three-fold higher SK1 inhibitory effect than RB005
same,selectivity to SK1 (over SK2),SK1 enzyme,more selectivity than RB005
same,PP2A activity (activation),PP2A in HCT116 cells,no effect on PP2A activation; also recorded: did not increase PP2A activity
same,phosphorylation of AKT and ERK,[2],did not decrease phosphorylation of AKT and ERK
same,apoptosis (annexin V assay),HT29 cells [3],did not significantly induce apoptosis
"O=S(=O)(Oc1ccc(CCN2CCC(O)CC2)cc1)c1ccccc1 [Compound 13, 4-(2-(4-Hydroxypiperidin-1-yl)ethyl)phenyl benzenesulfonate]",selectivity to SK1 (over SK2),SK1 enzyme,more selectivity than RB005
same,PP2A activity (activation),PP2A in HCT116 cells,no effect on PP2A activation; also recorded: did not increase PP2A activity
same,phosphorylation of AKT and ERK,[2],did not decrease phosphorylation of AKT and ERK
same,apoptosis (annexin V assay),HT29 cells [3],did not significantly induce apoptosis
CCCCOc1ccc(CCC=C2SC(=O)N(CCN)C2=O)cc1 [Compound K145],IC50,SK2,4.3 µM
same,IC50,SK1,> 10 µM
CC(=O)N1CCN(c2ccc(OCC3COC(Cn4ccnc4)(c4ccc(Cl)cc4Cl)O3)cc2)CC1 (stereo not shown) [Ketoconazole],CYP2C9 activity (% of control activity),CYP2C9,>100%
same,CYP1A2 activity (% of control activity),CYP1A2,>100%
same,CYP2C19 activity (% of control activity),CYP2C19,>100%
Cc1cc(CS(=O)(=O)c2ccccc2)cc(OCc2ccc(CN3CCC[C@@H]3CO)cc2)c1 [PF-543],"liver microsomal stability, Mouse (%)",[4]; [7],6.5%
same,liver microsomal stability (in words),[4]; mouse,unstable
same,"liver microsomal stability, Human (%)","[5]; % remaining after 30 min, 0.5 mg/mL microsomes, NADPH",13.5%
same,liver microsomal stability (in words),[5]; human,unstable
same,CYP1A2 activity (% of control activity),CYP1A2,80.9%
same,CYP2D6 activity (% of control activity),CYP2D6,63.9%
same,"liver microsomal stability, Rat (%)",[6]; [7],8.1%
same,liver microsomal stability (in words),[6]; rat,unstable
"CCCCCCCCc1ccc(CCN2CCC(O)CC2)cc1 [RB005, reference compound]",PP2A activity increase,"PP2A in HCT116 cells; HCT116, 24 h, 20 µM of compounds 10, 11 and 13, vs nontreated control cells",1.59 fold
same,"cytotoxic effect, comparison","HCT116 cells; HCT116, 10, 20 and 40 µM, Supplementary Figure S1C","higher than compounds 11, 13, and PF-543"
CCCCCCCCOc1ccc(-c2noc([C@@H]3CCCN3C(=N)N)n2)cc1C(F)(F)F [SLM6041434],Ki,SK2; known compound,400 to 1100 nM
